Measured values published in the supplement of paper PMC10307832.

Assays:
Assay in all cases: relative viability (nuclei count vs DMSO), 5 days (fraction); higher = more cells survive
Avagacestat + OSI-027 = compound: NC(=O)[C@@H](CCC(F)(F)F)N(Cc1ccc(-c2ncon2)cc1F)S(=O)(=O)c1ccc(Cl)cc1 [Avagacestat] + COc1cccc2cc(-c3nc([C@H]4CC[C@H](C(=O)O)CC4)n4ncnc(N)c34)[nH]c12 [OSI-027] (partner 0.5 µM)
Outline: (§1)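 Lung cancer cell lines, seeded in 1536-well plates, were treated the following day by pin tool with a single drug or with five library-drug doses (not always all listed) in √10 steps on top of a fixed anchor-drug dose. Cells were fixed and nuclei stained in one step after 5 days, and nuclei were counted. Relative viability is the nuclei count for treated wells divided by that for vehicle wells, reported as medians of duplicate plates.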

Avagacestat + Lapatinib = compound: NC(=O)[C@@H](CCC(F)(F)F)N(Cc1ccc(-c2ncon2)cc1F)S(=O)(=O)c1ccc(Cl)cc1 [Avagacestat] + CS(=O)(=O)CCNCc1ccc(-c2ccc3ncnc(Nc4ccc(OCc5cccc(F)c5)c(Cl)c4)c3c2)o1 [Lapatinib] (partner 2 µM)
Outline: as §1

Avagacestat + Trametinib = compound: NC(=O)[C@@H](CCC(F)(F)F)N(Cc1ccc(-c2ncon2)cc1F)S(=O)(=O)c1ccc(Cl)cc1 [Avagacestat] + CC(=O)Nc1cccc(-n2c(=O)n(C3CC3)c(=O)c3c(Nc4ccc(I)cc4F)n(C)c(=O)c(C)c32)c1 [Trametinib] (partner 0.02 µM)
Outline: as §1

Avagacestat + Linsitinib = compound: NC(=O)[C@@H](CCC(F)(F)F)N(Cc1ccc(-c2ncon2)cc1F)S(=O)(=O)c1ccc(Cl)cc1 [Avagacestat] + C[C@]1(O)C[C@@H](c2nc(-c3ccc4ccc(-c5ccccc5)nc4c3)c3c(N)nccn32)C1 [Linsitinib] (partner 1 µM)
Outline: as §1

Cell Line	relative viability (Avagacestat + OSI-027; first compound 0.08 µM)	relative viability (Avagacestat + OSI-027; first compound 0.253 µM)	relative viability (Avagacestat + OSI-027; first compound 0.8 µM)	relative viability (Avagacestat + OSI-027; first compound 2.53 µM)	relative viability (Avagacestat + OSI-027; first compound 8 µM)	relative viability (Avagacestat + Lapatinib; first compound 0.08 µM)	relative viability (Avagacestat + Lapatinib; first compound 0.253 µM)	relative viability (Avagacestat + Lapatinib; first compound 0.8 µM)	relative viability (Avagacestat + Lapatinib; first compound 2.53 µM)	relative viability (Avagacestat + Lapatinib; first compound 8 µM)	relative viability (Avagacestat + Trametinib; first compound 0.08 µM)	relative viability (Avagacestat + Trametinib; first compound 0.253 µM)	relative viability (Avagacestat + Trametinib; first compound 0.8 µM)	relative viability (Avagacestat + Trametinib; first compound 2.53 µM)	relative viability (Avagacestat + Trametinib; first compound 8 µM)	relative viability (Avagacestat + Linsitinib; first compound 0.08 µM)	relative viability (Avagacestat + Linsitinib; first compound 0.253 µM)	relative viability (Avagacestat + Linsitinib; first compound 0.8 µM)	relative viability (Avagacestat + Linsitinib; first compound 2.53 µM)	relative viability (Avagacestat + Linsitinib; first compound 8 µM)
201T	0.803	0.988	0.942	0.529	0.76	1.04	1.06	1.12	0.995	1.01	0.732	0.749	0.761	0.691	0.625	1.02	1.07	1.13	0.985	0.99
A549	–	–	–	–	–	1.58	0.977	1.09	0.939	1.11	–	–	–	–	–	0.826	0.582	0.58	0.571	0.459
A-427	0.543	0.474	0.421	0.403	0.445	1.03	1.28	1.12	1.07	1.06	0.84	0.898	0.71	0.694	0.742	1.11	1.24	1.16	1.15	1.22
ABC-1	0.442	0.537	0.637	0.401	0.418	1.23	1.32	1.14	0.497	1.15	–	–	–	–	–	0.979	1.06	0.866	0.786	0.737
BEN	0.313	0.303	0.544	0.303	0.327	0.886	0.768	0.685	0.592	0.585	1.1	1.18	1.05	0.917	1.13	0.898	1.07	1.02	0.76	0.847
CAL-12T	1.01	0.873	0.957	0.841	0.607	0.836	0.859	0.833	0.747	0.699	0.407	0.417	0.418	0.413	0.443	0.94	0.865	0.931	0.768	0.693
COR-L23	1.06	1.02	0.906	0.697	0.661	1.26	1.1	1.3	0.95	0.4	0.765	0.741	0.818	0.632	0.414	1.21	0.896	0.869	0.764	0.573
COR-L 105	0.614	0.687	0.74	0.525	0.486	0.345	0.352	0.341	0.345	0.348	0.401	0.45	0.457	0.42	0.474	0.99	0.972	0.59	0.964	0.755
Calu-6	–	–	–	–	–	1.41	1.41	1.26	1.47	1.03	–	–	–	–	–	1.05	1.04	1.07	1.03	0.784
ChaGo-K-1	0.659	0.655	0.6	0.456	0.451	–	–	–	–	–	0.95	0.933	0.897	0.817	0.797	–	–	–	–	–
EBC-1	–	–	–	–	–	0.212	0.231	0.246	0.23	0.202	–	–	–	–	–	0.88	0.914	1.09	0.995	0.649
EKVX	0.675	0.687	0.72	0.461	0.659	0.227	0.208	0.226	0.186	0.184	0.468	0.39	0.348	0.303	0.298	1.22	0.996	1.25	0.847	0.703
EMC-BAC-2	0.364	0.445	0.429	0.396	0.364	0.978	0.956	1.02	0.954	0.841	0.986	1.2	1.05	0.955	1.02	0.882	0.953	0.84	0.738	0.784
EPLC-272H	0.274	0.259	0.326	0.226	0.28	1.1	0.963	0.883	1.15	0.997	0.309	0.295	0.316	0.333	0.248	1.4	1.2	1.4	1.32	0.933
H3255	0.642	0.74	0.828	0.625	0.621	0.262	0.259	0.3	0.244	0.276	0.673	0.644	0.777	0.569	0.589	1.02	1.17	0.975	0.899	0.898
HARA	0.603	0.57	0.484	0.383	0.49	0.628	0.692	0.526	0.624	0.63	0.704	0.764	0.757	0.536	0.647	1.29	1.28	1.01	0.79	0.907
HCC-15	0.757	0.881	0.776	0.644	0.717	0.95	1.04	1.12	0.879	0.778	0.395	0.44	0.391	0.394	0.374	0.985	0.998	0.874	0.936	0.755
HCC-44	0.474	0.457	0.673	0.528	0.499	1.23	0.893	1.17	1.03	0.98	1.05	1.02	1.05	0.98	1.03	0.703	0.709	0.681	0.504	0.598
HCC-78	0.381	0.4	0.349	0.373	0.401	0.556	0.696	1.48	0.7	0.579	0.878	0.933	0.888	0.789	0.726	0.568	0.54	0.706	0.396	0.406

Cell Line	relative viability (Avagacestat + OSI-027; first compound 0.08 µM)	relative viability (Avagacestat + OSI-027; first compound 0.253 µM)	relative viability (Avagacestat + OSI-027; first compound 0.8 µM)	relative viability (Avagacestat + OSI-027; first compound 2.53 µM)	relative viability (Avagacestat + OSI-027; first compound 8 µM)	relative viability (Avagacestat + Lapatinib; first compound 0.08 µM)	relative viability (Avagacestat + Lapatinib; first compound 0.253 µM)	relative viability (Avagacestat + Lapatinib; first compound 0.8 µM)	relative viability (Avagacestat + Lapatinib; first compound 2.53 µM)	relative viability (Avagacestat + Lapatinib; first compound 8 µM)	relative viability (Avagacestat + Trametinib; first compound 0.08 µM)	relative viability (Avagacestat + Trametinib; first compound 0.253 µM)	relative viability (Avagacestat + Trametinib; first compound 0.8 µM)	relative viability (Avagacestat + Trametinib; first compound 2.53 µM)	relative viability (Avagacestat + Trametinib; first compound 8 µM)	relative viability (Avagacestat + Linsitinib; first compound 0.08 µM)	relative viability (Avagacestat + Linsitinib; first compound 0.253 µM)	relative viability (Avagacestat + Linsitinib; first compound 0.8 µM)	relative viability (Avagacestat + Linsitinib; first compound 2.53 µM)	relative viability (Avagacestat + Linsitinib; first compound 8 µM)
HCC-366	1.07	1.49	1.01	0.772	0.872	1.6	1.26	1.23	1.05	1.21	0.446	0.547	0.346	0.297	0.27	1.06	0.782	0.835	0.471	0.373
HCC-827	0.892	0.688	0.818	0.668	0.703	0.197	0.178	0.177	0.169	0.191	0.602	0.509	0.543	0.531	0.507	1.03	1.02	0.931	0.995	1.08
HOP-62	1.16	0.895	0.737	0.609	0.63	1.02	0.943	0.983	0.996	1.01	0.381	0.372	0.4	0.323	0.304	1.06	0.852	0.992	0.919	0.94
IA-LM	–	–	–	–	–	1.8	1.39	1.38	1	1.07	–	–	–	–	–	1.24	0.859	1.11	1.01	0.984
LC-2-ad	0.796	0.898	0.855	0.795	0.739	1.04	1.16	1.03	0.996	0.867	0.99	0.965	0.962	0.911	0.856	0.819	0.896	0.87	0.778	0.807
LCLC-97TM1	0.562	0.674	0.424	0.694	0.518	0.771	1.29	0.977	0.703	0.86	0.241	0.251	0.266	0.174	0.22	0.161	0.212	0.155	0.151	0.163
LCLC-103H	0.488	0.531	0.438	0.409	0.406	–	–	–	–	–	0.721	0.726	0.772	0.567	0.61	1.08	1.01	1.24	1.01	0.877
LK-2	0.189	0.206	0.162	0.181	0.212	1.13	0.985	0.785	0.521	0.76	1.02	0.917	0.651	–	0.747	0.966	0.49	0.386	–	0.505
LOU-NH91	0.688	0.656	0.789	0.723	0.716	0.816	0.788	0.831	0.692	0.776	0.877	0.801	0.839	0.765	0.765	0.966	0.883	1.01	0.786	0.929
LU99A	0.285	0.28	0.278	0.286	0.266	1.01	1.2	1.25	1.06	1.1	0.515	0.485	0.555	0.485	0.534	0.598	0.561	0.63	0.563	0.644
NCI-H441	0.859	0.72	0.704	0.589	0.462	–	–	–	–	–	0.52	0.462	0.449	0.515	0.411	0.697	0.565	0.564	0.49	0.461
NCI-H522	0.823	0.728	0.655	0.689	0.725	–	–	–	–	–	0.748	0.74	0.734	0.72	0.795	–	–	–	–	–
NCI-H1299	–	–	–	–	–	1.03	0.984	0.988	0.924	0.926	–	–	–	–	–	0.987	1.12	1	0.988	0.926
NCI-H1563	0.829	0.776	0.736	0.735	0.719	0.959	0.806	0.951	0.828	0.925	–	–	–	–	–	1.25	1.26	1.18	1.03	1
NCI-H1648	0.266	0.273	0.271	0.255	0.232	–	–	–	–	–	0.443	0.426	0.36	0.318	0.32	–	–	–	–	–
NCI-H1650	0.49	0.671	0.643	0.782	0.67	1.02	0.825	0.695	0.884	0.853	0.696	0.614	0.73	0.678	0.588	–	–	–	–	–
NCI-H1703	–	–	–	–	–	0.986	1.28	1.44	1.02	1.03	–	–	–	–	–	0.982	0.768	0.854	0.784	0.93
NCI-H2170	0.862	0.8	0.851	0.721	0.643	0.297	0.265	0.291	0.275	0.296	1	1.17	1	0.867	0.881	–	–	–	–	–
NCI-H2342	0.589	0.597	0.674	0.602	0.572	–	–	–	–	–	0.725	0.771	0.784	0.766	0.693	–	–	–	–	–
